Results published in patent US20230183259A1, “Crystal Form Of Thiofuran Pyridazine Compound, Preparation Method Therefor And Application Thereof” (ZHEJIANG MEDICINE CO., LTD. XINCHANG PHARMACEUTICAL FACTORY, priority 2020, published 2023).

Key:
[1] = acceleration test (stability); format: physicochemical; conditions: 40° C.±2° C., relative humidity 75%±5%
Protocol: (§1) Stability tests were performed on the samples of Examples 1, 2, 3, 4 and 5. […] Please refer to the results of the acceleration test (40° C.±2° C., relative humidity 75%±5%) of Table 1 and the results of the long-term stability test (25° C.±2° C., relative humidity 60%±10%) of Table 2.

long-term stability test = format: physicochemical; conditions: 25° C.±2° C., relative humidity 60%±10%
Protocol: as §1

## (S)-2-(4-fluorophenyl)-4-(piperidine-3-aminomethyl)thieno[2,3-d]pyridazine-7-carboxamide hydrochloride [Example 110601-3]
[1]; 0 month
  (%) Impurity B (%): 0.00%
  Crystal form: unchanged
  appearance: yellow crystalline powder
[1]; 0 month, hydrochloride
  Enantiomer (%): 0.09%
  Impurity A (%): 0.28%
  Impurity C (%): 0.02%
  Loss on drying (%): 7.2%
  Single largest impurity (%): 0.01%
  Total relevant substances (%): 0.37%
  content(%): 99.6%
[1]; 1 month
  Crystal form: unchanged
  Impurity C (%): 0.02%
  appearance: yellow crystalline powder
[1]; 1 month, hydrochloride
  (%) Impurity B (%): 0.03%
  Enantiomer (%): 0.11%
  Impurity A (%): 0.25%
  Loss on drying (%): 7.2%
  Single largest impurity (%): 0.02%
  Total relevant substances (%): 0.39%
  content(%): 100.0%
[1]; 2 months
  Crystal form: unchanged
  appearance: yellow crystalline powder
[1]; 2 months, hydrochloride
  (%) Impurity B (%): 0.03%
  Enantiomer (%): 0.1%
  Impurity A (%): 0.26%
  Impurity C (%): 0.02%
  Loss on drying (%): 7.2%
  Single largest impurity (%): 0.03%
  Total relevant substances (%): 0.38%
  content(%): 98.2%
[1]; 3 months
  (%) Impurity B (%): 0.00%
  Crystal form: unchanged
  Impurity C (%): 0.02%
  appearance: yellow crystalline powder
[1]; 3 months, hydrochloride
  Enantiomer (%): 0.09%
  Impurity A (%): 0.25%
  Loss on drying (%): 7.2%
  Single largest impurity (%): 0.02%
  Total relevant substances (%): 0.33%
  content(%): 99.9%
[1]; 6 months
  (%) Impurity B (%): 0.00%
  Crystal form: unchanged
  Impurity C (%): 0.02%
  appearance: yellow crystalline powder
[1]; 6 months, hydrochloride
  Enantiomer (%): 0.08%
  Impurity A (%): 0.21%
  Loss on drying (%): 7.1%
  Single largest impurity (%): 0.02%
  Total relevant substances (%): 0.28%
  content(%): 99.7%
long-term stability test; 0 month
  Crystal form: unchanged
  ImpurityB(%): 0.00%
long-term stability test; 0 month, hydrochloride
  Content (calculated by dried product )(%): 99.6%
  Enantiomers (%): 0.09%
  ImpurityA(%): 0.28%
  ImpurityC(%): 0.02%
  Loss on drying (%): 7.2%
  Single largest impurity (%): 0.01%
  Total relevant substances (%): 0.37%
  appearance: yellow crystalline powder
long-term stability test; 3 months
  Crystal form: unchanged
  ImpurityB(%): 0.00%
  ImpurityC(%): 0.02%
long-term stability test; 3 months, hydrochloride
  Content (calculated by dried product )(%): 100.2%
  Enantiomers (%): 0.09%
  ImpurityA(%): 0.26%
  Loss on drying (%): 7.1%
  Single largest impurity (%): 0.03%
  Total relevant substances (%): 0.35%
  appearance: yellow crystalline powder
long-term stability test; 6 months
  Crystal form: unchanged
  ImpurityB(%): 0.00%
long-term stability test; 6 months, hydrochloride
  Content (calculated by dried product )(%): 99.6%
  Enantiomers (%): 0.08%
  ImpurityA(%): 0.25%
  ImpurityC(%): 0.02%
  Loss on drying (%): 7.2%
  Single largest impurity (%): 0.03%
  Total relevant substances (%): 0.35%
  appearance: yellow crystalline powder
long-term stability test; 9 months
  Crystal form: unchanged
  ImpurityC(%): 0.02%
long-term stability test; 9 months, hydrochloride
  Content (calculated by dried product )(%): 99.5%
  Enantiomers (%): 0.09%
  ImpurityA(%): 0.25%
  ImpurityB(%): 0.01%
  Loss on drying (%): 7.2%
  Single largest impurity (%): 0.02%
  Total relevant substances (%): 0.38%
  appearance: yellow crystalline powder
long-term stability test; 12 months
  Crystal form: unchanged
  ImpurityB(%): 0.01%
  Single largest impurity (%): 0.02%
long-term stability test; 12 months, hydrochloride
  Content (calculated by dried product )(%): 99.9%
  Enantiomers (%): 0.08%
  ImpurityA(%): 0.25%
  ImpurityC(%): 0.03%
  Loss on drying (%): 7.3%
  Total relevant substances (%): 0.35%
  appearance: yellow crystalline powder
long-term stability test; 18 months
  Crystal form: unchanged
  ImpurityB(%): 0.00%
  Single largest impurity (%): 0.02%
long-term stability test; 18 months, hydrochloride
  Content (calculated by dried product )(%): 101.1%
  Enantiomers (%): 0.06%
  ImpurityA(%): 0.25%
  ImpurityC(%): 0.03%
  Loss on drying (%): 7.1%
  Total relevant substances (%): 0.31%
  appearance: yellow crystalline powder
long-term stability test; 24 months
  Crystal form: unchanged
  Enantiomers (%): 0.08%
  ImpurityB(%): 0.00%
  ImpurityC(%): 0.02%
  Single largest impurity (%): 0.02%
long-term stability test; 24 months, hydrochloride
  Content (calculated by dried product )(%): 98.6%
  ImpurityA(%): 0.25%
  Loss on drying (%): 7.3%
  Total relevant substances (%): 0.34%
  appearance: yellow crystalline powder
long-term stability test; 36 months
  Crystal form: unchanged
  ImpurityC(%): 0.02%
  Single largest impurity (%): 0.02%
long-term stability test; 36 months, hydrochloride
  Content (calculated by dried product )(%): 99.7%
  Enantiomers (%): 0.06%
  ImpurityA(%): 0.26%
  ImpurityB(%): 0.01%
  Loss on drying (%): 7.0%
  Total relevant substances (%): 0.36%
  appearance: yellow crystalline powder
